Reference: patent US10681909B2, “Herbicidal triazoles” (FMC Corporation, priority 2014, dated 2020)

Legend:
[1] = test system: corn; test: Test A postemergence; assay type: in vivo, Zea mays; details: 0 to 100 scale (0 no effect, 100 complete control), approx. 10 d
Outline: (§1)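 Plant seeds in loam soil blended with sand, then apply test chemical preemergence as a directed soil spray; in parallel, spray potted seedlings (one- to two-leaf, 2 to 10 cm) postemergence. Both treatments use a non-phytotoxic solvent mixture with surfactant.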

[2] = test system: velvetleaf; test: Test C postemergence; assay type: in vivo, Abutilon theophrasti
Outline: (§2)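 Pre: seeded into loam/sand, sprayed same time. Post: plants in peat moss–vermiculite mix with starter nutrients and dolomitic limestone, treated at 1- to 4-leaf stage (2 to 18 cm). Formulation: non-phytotoxic solvent blend plus surfactant.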

[3] = test system: foxtail, giant; test: Test C postemergence; assay type: in vivo, Setaria faberii
Outline: as §2

[4] = test system: corn; test: Test C postemergence; assay type: in vivo, Zea mays
Outline: as §2

[5] = test system: kochia; test: Test C postemergence; assay type: in vivo, Kochia scoparia
Outline: as §2

[6] = test system: ryegrass, Italian; test: Test C postemergence; assay type: in vivo, Lolium multiflorum
Outline: as §2

[7] = test system: waterhemp; test: Test C postemergence; assay type: in vivo, Amaranthus rudis
Outline: as §2

[8] = test system: barnyardgrass; test: Test B flooded paddy test; assay type: in vivo, Echinochloa crus-galli; details: 250 g ai/ha, applied to paddy water at 2-leaf stage, visual rating after 13 to 15 d, scale 0 (no effect) to 100 (complete control)
Outline: (§3)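 Pots were flooded to 3 cm above the soil at treatment, and compounds were applied directly into the paddy water. That depth was held throughout. After 13 to 15 d in a greenhouse, plants were rated visually against untreated controls.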

[9] = test system: nutsedge, yellow; test: Test C postemergence; assay type: in vivo, Cyperus esculentus
Outline: as §2

[10] = test system: barnyardgrass; test: Test A postemergence; assay type: in vivo, Echinochloa crus-galli; details: 0 to 100 scale (0 no effect, 100 complete control), approx. 10 d
Outline: as §1

[11] = test system: oilseed rape; test: Test C postemergence; assay type: in vivo, Brassica napus
Outline: as §2

[12] = test system: sedge, umbrella; test: Test B flooded paddy test; assay type: in vivo, Cyperus difformis; details: 250 g ai/ha, applied to paddy water at 2-leaf stage, visual rating after 13 to 15 d, scale 0 (no effect) to 100 (complete control)
Outline: as §3

[13] = test system: crabgrass, large; test: Test C postemergence; assay type: in vivo, Digitaria sanguinalis
Outline: as §2

[14] = test system: barnyardgrass; test: Test C postemergence; assay type: in vivo, Echinochloa crus-galli
Outline: as §2

[15] = test system: barnyardgrass; test: Test A preemergence; assay type: in vivo, Echinochloa crus-galli; details: 0 to 100 scale (0 no effect, 100 complete control)
Outline: as §1

[16] = test system: foxtail, giant; test: Test A postemergence; assay type: in vivo, Setaria faberii; details: 0 to 100 scale (0 no effect, 100 complete control), approx. 10 d
Outline: as §1

[17] = test system: ducksalad; test: Test B flooded paddy test; assay type: in vivo, Heteranthera limosa; details: 250 g ai/ha, applied to paddy water at 2-leaf stage, visual rating after 13 to 15 d, scale 0 (no effect) to 100 (complete control)
Outline: as §3

[18] = test system: morningglory; test: Test C postemergence; assay type: in vivo, Ipomoea coccinea
Outline: as §2

[19] = test system: pigweed; test: Test A postemergence; assay type: in vivo, Amaranthus retroflexus; details: 0 to 100 scale (0 no effect, 100 complete control), approx. 10 d
Outline: as §1

[20] = test system: ragweed; test: Test C postemergence; assay type: in vivo, Ambrosia elatior
Outline: as §2

[21] = test system: wheat; test: Test A postemergence; assay type: in vivo, Triticum aestivum; details: 0 to 100 scale (0 no effect, 100 complete control), approx. 10 d
Outline: as §1

COc1nc(-c2ccc(Cl)cc2)nn1Cc1ccnc(C(F)(F)F)c1 [Compound 28]
98: Plant response rating (scale of 0 to 100 where 0 is no effect and 100 is complete control) ([7]; 31 g ai/ha) | Plant response rating (scale of 0 to 100 where 0 is no effect and 100 is complete control) ([7]; 250 g ai/ha)
30: Plant response rating, Barnyardgrass ([10]; 125 g ai/ha) | Plant response rating (scale of 0 to 100 where 0 is no effect and 100 is complete control) ([13]; 250 g ai/ha) | Plant response rating, Barnyardgrass ([15]; 125 g ai/ha)
75: Plant response rating (scale of 0 to 100 where 0 is no effect and 100 is complete control) ([20]; 125 g ai/ha) | Plant response rating (scale of 0 to 100 where 0 is no effect and 100 is complete control) ([20]; 250 g ai/ha)
70: Plant response rating (scale of 0 to 100 where 0 is no effect and 100 is complete control) ([11]; Oilseed Rape, 125 g ai/ha) | Plant response rating, Foxtail, Giant ([16]; 125 g ai/ha) | Plant response rating (scale of 0 to 100 where 0 is no effect and 100 is complete control) ([18]; 31 g ai/ha)
100: Plant response rating (scale of 0 to 100 where 0 is no effect and 100 is complete control) ([5]; 62 g ai/ha) | Plant response rating (scale of 0 to 100 where 0 is no effect and 100 is complete control) ([5]; 125 g ai/ha) | Plant response rating (scale of 0 to 100 where 0 is no effect and 100 is complete control) ([5]; 250 g ai/ha) | Plant response rating, Sedge, Umbrella, Flood [12] | Plant response rating (scale of 0 to 100 where 0 is no effect and 100 is complete control) ([18]; 250 g ai/ha) | Plant response rating, Pigweed ([19]; 125 g ai/ha) | Plant response rating, Pigweed ([19]; 500 g ai/ha)
25: Plant response rating (scale of 0 to 100 where 0 is no effect and 100 is complete control) ([11]; Oilseed Rape, 31 g ai/ha) | Plant response rating (scale of 0 to 100 where 0 is no effect and 100 is complete control) ([14]; 250 g ai/ha) | Plant response rating (scale of 0 to 100 where 0 is no effect and 100 is complete control) ([20]; 31 g ai/ha) | Plant response rating (scale of 0 to 100 where 0 is no effect and 100 is complete control) ([20]; 62 g ai/ha)
65: Plant response rating (scale of 0 to 100 where 0 is no effect and 100 is complete control) ([2]; 125 g ai/ha) | Plant response rating (scale of 0 to 100 where 0 is no effect and 100 is complete control) ([18]; 125 g ai/ha)
15: Plant response rating (scale of 0 to 100 where 0 is no effect and 100 is complete control) ([3]; 31 g ai/ha) | Plant response rating (scale of 0 to 100 where 0 is no effect and 100 is complete control) ([4]; 125 g ai/ha) | Plant response rating (scale of 0 to 100 where 0 is no effect and 100 is complete control) ([4]; 250 g ai/ha) | Plant response rating (scale of 0 to 100 where 0 is no effect and 100 is complete control) ([6]; 250 g ai/ha) | Plant response rating (scale of 0 to 100 where 0 is no effect and 100 is complete control) ([9]; 125 g ai/ha) | Plant response rating (scale of 0 to 100 where 0 is no effect and 100 is complete control) ([14]; 31 g ai/ha) | Plant response rating (scale of 0 to 100 where 0 is no effect and 100 is complete control) ([14]; 62 g ai/ha) | Plant response rating (scale of 0 to 100 where 0 is no effect and 100 is complete control) ([14]; 125 g ai/ha)
5: Plant response rating (scale of 0 to 100 where 0 is no effect and 100 is complete control) ([4]; 31 g ai/ha) | Plant response rating (scale of 0 to 100 where 0 is no effect and 100 is complete control) ([6]; 31 g ai/ha) | Plant response rating (scale of 0 to 100 where 0 is no effect and 100 is complete control) ([6]; 62 g ai/ha) | Plant response rating (scale of 0 to 100 where 0 is no effect and 100 is complete control) ([9]; 31 g ai/ha) | Plant response rating (scale of 0 to 100 where 0 is no effect and 100 is complete control) ([9]; 62 g ai/ha)
20: Plant response rating, Barnyardgrass, Flood [8]
95: Plant response rating (scale of 0 to 100 where 0 is no effect and 100 is complete control) ([5]; 31 g ai/ha) | Plant response rating (scale of 0 to 100 where 0 is no effect and 100 is complete control) ([7]; 62 g ai/ha) | Plant response rating (scale of 0 to 100 where 0 is no effect and 100 is complete control) ([7]; 125 g ai/ha) | Plant response rating (scale of 0 to 100 where 0 is no effect and 100 is complete control) ([11]; Oilsee Rape, 250 g ai/ha)
80: Plant response rating (scale of 0 to 100 where 0 is no effect and 100 is complete control) ([2]; 250 g ai/ha) | Plant response rating, Barnyardgrass ([10]; 500 g ai/ha)
60: Plant response rating (scale of 0 to 100 where 0 is no effect and 100 is complete control) ([2]; 31 g ai/ha) | Plant response rating (scale of 0 to 100 where 0 is no effect and 100 is complete control) ([2]; 62 g ai/ha) | Plant response rating (scale of 0 to 100 where 0 is no effect and 100 is complete control) ([18]; 62 g ai/ha)
0: Plant response rating, Wheat ([21]; 125 g ai/ha)
90: Plant response rating, Barnyardgrass ([15]; 500 g ai/ha, approx. 10 d) | Plant response rating, Foxtail, Giant ([16]; 500 g ai/ha) | Plant response rating, Ducksalad, Flood [17]
10: Plant response rating, Corn ([1]; 125 g ai/ha) | Plant response rating (scale of 0 to 100 where 0 is no effect and 100 is complete control) ([3]; 62 g ai/ha) | Plant response rating (scale of 0 to 100 where 0 is no effect and 100 is complete control) ([3]; 125 g ai/ha) | Plant response rating (scale of 0 to 100 where 0 is no effect and 100 is complete control) ([3]; 250 g ai/ha) | Plant response rating (scale of 0 to 100 where 0 is no effect and 100 is complete control) ([4]; 62 g ai/ha) | Plant response rating (scale of 0 to 100 where 0 is no effect and 100 is complete control) ([6]; 125 g ai/ha) | Plant response rating (scale of 0 to 100 where 0 is no effect and 100 is complete control) ([9]; 250 g ai/ha) | Plant response rating (scale of 0 to 100 where 0 is no effect and 100 is complete control) ([13]; 31 g ai/ha) | Plant response rating (scale of 0 to 100 where 0 is no effect and 100 is complete control) ([13]; 62 g ai/ha) | Plant response rating (scale of 0 to 100 where 0 is no effect and 100 is complete control) ([13]; 125 g ai/ha) | Plant response rating, Wheat ([21]; 500 g ai/ha)
55: Plant response rating (scale of 0 to 100 where 0 is no effect and 100 is complete control) ([11]; Oilseed Rape, 62 g ai/ha)
40: Plant response rating, Corn ([1]; 500 g ai/ha)
